# Data taken from ChEMBL document CHEMBL5143740, “Discovery of Novel Phosphoinositide-3-Kinase α Inhibitors with High Selectivity, Excellent Bioavailability, and Long-Acting Efficacy for Gastric Cancer” (J Med Chem, 2022).
# Active and inactive are the calls of the source. No cut-off for these calls is given here.
# Test system: MGC-803
# Experiment: Antitumor activity against human MGC-803 cells xenografted in BALB/c nude mouse assessed as reduction in tumor volume at 10 mg/kg, ip administered every day for 3 weeks by vernier caliper method
# Type: functional, organism-based
# Conditions: not given
row,SMILES,Activity
1,CC(=O)O[C@H]1C(=O)[C@@]2(C)[C@H]([C@H](OC(=O)c3ccccc3)[C@]3(O)C[C@H](OC(=O)[C@H](O)[C@@H](NC(=O)c4ccccc4)c4ccccc4)C(C)=C1C3(C)C)[C@]1(OC(C)=O)CO[C@@H]1C[C@@H]2O [PACLITAXEL],Active

# Organism: Homo sapiens
# Experiment: Selectivity index, ratio of IC50 for inhibition of PI3Kgamma (unknown origin) to IC50 for inhibition of PI3Kalpha (unknown origin)
# Conditions: not given
row,Ratio IC50,SMILES
1,581,O=C(O)c1ccc(CNc2nc3ccc(-c4nc(N5CCOCC5)nc(N5CCOCC5)n4)cc3o2)cc1

# Organism: Homo sapiens
# Experiment: Selectivity index, ratio of IC50 for inhibition of PI3Kdelta (unknown origin) to IC50 for inhibition of PI3Kalpha (unknown origin)
# Conditions: not given
row,Ratio IC50,SMILES
1,8.5,O=C(O)c1ccc(CNc2nc3ccc(-c4nc(N5CCOCC5)nc(N5CCOCC5)n4)cc3o2)cc1

# Test system: MGC-803
# Experiment: Antiproliferative activity against human MGC-803 cells assessed as inhibition of cell growth incubated for 72 hrs by CCK8 assay
# Type: functional, cell-based
# Conditions: MGC-803, 72 h
row,IC50,SMILES
1,430 nM,Cc1nc(NC(=O)N2CCC[C@H]2C(N)=O)sc1-c1ccnc(C(C)(C)C(F)(F)F)c1 [ALPELISIB]

# Organism: Homo sapiens
# Experiment: Selectivity index, ratio of IC50 for inhibition of PI3Kbeta (unknown origin) to IC50 for inhibition of PI3Kalpha (unknown origin)
# Conditions: not given
row,Ratio IC50,SMILES
1,16,O=C(O)c1ccc(CNc2nc3ccc(-c4nc(N5CCOCC5)nc(N5CCOCC5)n4)cc3o2)cc1

# Test system: MGC-803
# Experiment: Antitumor activity against human MGC-803 cells xenografted in BALB/c nude mouse assessed as tumor growth inhibition at 30 mg/kg, po administered every day for 3 weeks
# Type: functional
# Conditions: MGC-803, 504 h, read-out: TGI
row,SMILES,inhibition in vivo at 30 mg/kg
1,CC(=O)O[C@H]1C(=O)[C@@]2(C)[C@H]([C@H](OC(=O)c3ccccc3)[C@]3(O)C[C@H](OC(=O)[C@H](O)[C@@H](NC(=O)c4ccccc4)c4ccccc4)C(C)=C1C3(C)C)[C@]1(OC(C)=O)CO[C@@H]1C[C@@H]2O [PACLITAXEL],60.3%

# Molecular target: Phosphatidylinositol 4,5-bisphosphate 3-kinase catalytic subunit alpha isoform (Homo sapiens, UniProt P42336)
# Sequence (P42336 whole entry, canonical isoform): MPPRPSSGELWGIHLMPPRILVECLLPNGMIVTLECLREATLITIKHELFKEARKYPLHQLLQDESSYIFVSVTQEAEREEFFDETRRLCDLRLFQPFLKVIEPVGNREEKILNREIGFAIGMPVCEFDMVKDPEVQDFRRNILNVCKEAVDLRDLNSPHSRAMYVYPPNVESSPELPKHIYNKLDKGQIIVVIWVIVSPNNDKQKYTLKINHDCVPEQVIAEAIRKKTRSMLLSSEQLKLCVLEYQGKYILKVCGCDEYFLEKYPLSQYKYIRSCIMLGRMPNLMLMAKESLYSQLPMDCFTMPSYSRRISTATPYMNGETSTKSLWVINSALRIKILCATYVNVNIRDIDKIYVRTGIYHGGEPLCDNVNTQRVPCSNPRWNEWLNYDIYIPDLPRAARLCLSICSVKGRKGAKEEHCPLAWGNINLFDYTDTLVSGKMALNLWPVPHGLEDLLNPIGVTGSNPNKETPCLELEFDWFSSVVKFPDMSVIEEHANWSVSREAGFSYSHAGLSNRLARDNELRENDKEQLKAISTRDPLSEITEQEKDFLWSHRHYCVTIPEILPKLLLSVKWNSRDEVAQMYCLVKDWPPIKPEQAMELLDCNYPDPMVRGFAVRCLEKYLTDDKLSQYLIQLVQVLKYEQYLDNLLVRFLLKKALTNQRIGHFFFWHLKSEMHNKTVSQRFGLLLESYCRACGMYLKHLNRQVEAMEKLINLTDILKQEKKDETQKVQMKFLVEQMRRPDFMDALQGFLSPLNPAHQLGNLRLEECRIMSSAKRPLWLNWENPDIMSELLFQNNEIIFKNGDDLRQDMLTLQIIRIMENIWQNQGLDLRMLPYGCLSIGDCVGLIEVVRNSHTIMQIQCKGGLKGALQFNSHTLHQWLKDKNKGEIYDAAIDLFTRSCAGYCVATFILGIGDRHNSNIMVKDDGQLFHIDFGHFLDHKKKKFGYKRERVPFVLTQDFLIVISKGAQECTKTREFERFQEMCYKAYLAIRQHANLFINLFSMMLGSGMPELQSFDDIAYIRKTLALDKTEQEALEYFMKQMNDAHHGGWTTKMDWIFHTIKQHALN
# Experiment: Inhibition of PI3Kalpha (unknown origin) using PIP2 as substrate in presence of ATP measured after 1 hr by ADP-Glo assay
# Conditions: not given
row,SMILES,IC50
1,CC(C)N1CCN(c2nc(-c3ccc4oc(N)nc4c3)nc(N3CCOCC3)n2)CC1,1050 nM
2,CC(=O)Nc1nc2ccc(-c3nc(N4CCOCC4)nc(N4CCOCC4)n3)cc2s1,8750 nM
3,CN(C)c1nc2cc(-c3nc(N4CCOCC4)nc(N4CCOCC4)n3)ccc2o1,2220 nM
4,CN(C)c1nc2ccc(-c3nc(N4CCNCC4)nc(N4CCOCC4)n3)cc2s1,> 10000 nM
5,CC(=O)N1CCN(c2nc(-c3ccc4nc(N)sc4c3)nc(N3CCOCC3)n2)CC1,497 nM
6,CN(C)c1nc2ccc(-c3nc(Nc4ccc(C(F)(F)F)cc4)nc(N4CCOCC4)n3)cc2s1,> 10000 nM
7,COC(=O)c1ccc(CNc2nc3ccc(-c4nc(N5CCN(C(C)=O)CC5)nc(N5CCN(C(C)=O)CC5)n4)cc3o2)cc1,> 10000 nM
8,Nc1nc2cc(-c3nc(NC4CCOCC4)nc(N4CCOCC4)n3)ccc2o1,4240 nM
9,O=C(Nc1nc2cc(-c3nc(N4CCOCC4)nc(N4CCOCC4)n3)ccc2o1)C1CCCCC1,7450 nM
10,CN(C)c1nc2ccc(-c3nc(N4CCOCC4)nc(N4CCN(S(C)(=O)=O)CC4)n3)cc2s1,> 10000 nM
11,CN(C)c1nc2ccc(-c3nc(N4CCOCC4)nc(N4CCOCC4)n3)cc2s1,> 10000 nM
12,Nc1nc2cc(-c3nc(N4CCNCC4)nc(N4CCOCC4)n3)ccc2o1,569 nM
13,CCN1CCN(c2nc(-c3ccc4oc(N)nc4c3)nc(N3CCOCC3)n2)CC1,598 nM
14,CC(=O)N1CCN(c2nc(-c3ccc4nc(N)oc4c3)nc(N3CCN(C(C)=O)CC3)n2)CC1,> 10000 nM
15,Nc1nc2ccc(-c3nc(N4CCOCC4)nc(N4CCC(C(F)(F)F)CC4)n3)cc2s1,5360 nM
16,CS(=O)(=O)N1CCN(c2nc(-c3ccc4nc(N)oc4c3)nc(N3CCN(S(C)(=O)=O)CC3)n2)CC1,> 10000 nM
17,c1cc2oc(NC3CCCC3)nc2cc1-c1nc(N2CCOCC2)nc(N2CCOCC2)n1,2820 nM
18,Nc1nc2ccc(-c3nc(Nc4ccc5c(c4)OCO5)nc(Nc4ccc5c(c4)OCO5)n3)cc2o1,> 10000 nM
19,CC(C)Nc1nc2cc(-c3nc(N4CCOCC4)nc(N4CCOCC4)n3)ccc2o1,2770 nM
20,Nc1nc2cc(-c3nc(Nc4cccc(C(F)(F)F)c4)nc(N4CCOCC4)n3)ccc2o1,1410 nM
21,CC(=O)N1CCN(c2nc(-c3ccc4nc(NCc5ccc(C(=O)O)cc5)oc4c3)nc(N3CCN(C(C)=O)CC3)n2)CC1,> 10000 nM
22,Nc1nc2cc(-c3nc(NC4CCC(C(F)(F)F)CC4)nc(N4CCOCC4)n3)ccc2o1 (stereo not drawn),703 nM

# Second part, the molecule after the results:
row,IC50,SMILES
1,99 nM,COC(=O)c1ccc(CNc2nc3cc(-c4nc(N5CCOCC5)nc(N5CCOCC5)n4)ccc3o2)cc1
2,86 nM,N#Cc1ccc(CNc2nc3cc(-c4nc(N5CCOCC5)nc(N5CCOCC5)n4)ccc3o2)cc1
3,357 nM,Nc1nc2ccc(-c3nc(N4CCOCC4)nc(N4CCOCC4)n3)cc2s1
4,432 nM,CC(C)(C)OC(=O)N1CCN(c2nc(-c3ccc4nc(N)sc4c3)nc(N3CCOCC3)n2)CC1
5,300 nM,FC(F)(F)c1ccc(CNc2nc3cc(-c4nc(N5CCOCC5)nc(N5CCOCC5)n4)ccc3o2)cc1
6,259 nM,CC(C)(C)OC(=O)N1CCN(c2nc(-c3ccc4oc(N)nc4c3)nc(N3CCOCC3)n2)CC1
7,6 nM,O=C(O)c1ccc(CNc2nc3ccc(-c4nc(N5CCOCC5)nc(N5CCOCC5)n4)cc3o2)cc1
8,23 nM,CC(=O)N1CCN(c2nc(-c3ccc4oc(N)nc4c3)nc(N3CCOCC3)n2)CC1
9,63 nM,c1ccc(CNc2nc3cc(-c4nc(N5CCOCC5)nc(N5CCOCC5)n4)ccc3o2)cc1
10,32 nM,CS(=O)(=O)N1CCN(c2nc(-c3ccc4oc(N)nc4c3)nc(N3CCOCC3)n2)CC1
11,311 nM,CC(C)c1ccc(CNc2nc3cc(-c4nc(N5CCOCC5)nc(N5CCOCC5)n4)ccc3o2)cc1
12,81 nM,COc1ccc(CNc2nc3cc(-c4nc(N5CCOCC5)nc(N5CCOCC5)n4)ccc3o2)cc1
13,72 nM,O=[N+]([O-])c1ccc(CNc2nc3cc(-c4nc(N5CCOCC5)nc(N5CCOCC5)n4)ccc3o2)cc1
14,66 nM,CC(=O)Nc1nc2cc(-c3nc(N4CCOCC4)nc(N4CCOCC4)n3)ccc2o1
15,397 nM,CC(C)C(=O)Nc1nc2cc(-c3nc(N4CCOCC4)nc(N4CCOCC4)n3)ccc2o1
16,47 nM,NC(=O)c1ccc(CNc2nc3cc(-c4nc(N5CCOCC5)nc(N5CCOCC5)n4)ccc3o2)cc1

# Test system: MCF7
# Experiment: Antiproliferative activity against human MCF7 cells assessed as inhibition of cell growth incubated for 72 hrs by CCK8 assay
# Type: functional, cell-based
# Conditions: MCF7, 72 h
row,IC50,SMILES
1,430 nM,Cc1nc(NC(=O)N2CCC[C@H]2C(N)=O)sc1-c1ccnc(C(C)(C)C(F)(F)F)c1 [ALPELISIB]

# Molecular target: T1, Phosphatidylinositol 4,5-bisphosphate 3-kinase catalytic subunit delta isoform (Homo sapiens, UniProt O00329)
# T1 sequence (O00329 whole entry): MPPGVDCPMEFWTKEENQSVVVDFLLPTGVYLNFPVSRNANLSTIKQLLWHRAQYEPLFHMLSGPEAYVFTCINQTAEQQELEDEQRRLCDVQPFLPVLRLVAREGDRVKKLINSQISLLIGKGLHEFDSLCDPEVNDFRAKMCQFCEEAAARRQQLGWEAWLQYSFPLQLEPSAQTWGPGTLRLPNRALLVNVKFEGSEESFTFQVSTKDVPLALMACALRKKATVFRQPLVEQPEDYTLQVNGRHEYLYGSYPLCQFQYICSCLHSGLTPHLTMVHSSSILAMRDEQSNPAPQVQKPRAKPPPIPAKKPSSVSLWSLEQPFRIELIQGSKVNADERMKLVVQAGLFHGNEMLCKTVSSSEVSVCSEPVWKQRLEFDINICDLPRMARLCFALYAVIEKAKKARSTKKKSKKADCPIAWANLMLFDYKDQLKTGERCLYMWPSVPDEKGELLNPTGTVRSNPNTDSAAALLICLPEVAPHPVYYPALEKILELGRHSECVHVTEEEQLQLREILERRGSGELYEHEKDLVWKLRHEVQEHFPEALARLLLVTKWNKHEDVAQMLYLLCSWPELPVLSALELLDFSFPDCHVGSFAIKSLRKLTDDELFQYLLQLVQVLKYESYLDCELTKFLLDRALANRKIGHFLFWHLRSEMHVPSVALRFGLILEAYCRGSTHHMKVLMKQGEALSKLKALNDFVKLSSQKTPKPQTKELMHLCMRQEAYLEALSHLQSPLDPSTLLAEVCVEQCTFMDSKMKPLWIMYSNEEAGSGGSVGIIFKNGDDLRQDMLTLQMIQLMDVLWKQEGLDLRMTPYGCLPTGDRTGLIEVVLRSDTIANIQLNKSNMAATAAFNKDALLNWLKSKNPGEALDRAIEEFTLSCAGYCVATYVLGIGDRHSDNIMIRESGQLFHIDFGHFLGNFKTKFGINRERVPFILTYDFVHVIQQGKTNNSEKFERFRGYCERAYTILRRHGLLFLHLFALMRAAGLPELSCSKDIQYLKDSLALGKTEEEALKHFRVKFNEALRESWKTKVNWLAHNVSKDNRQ
# Experiment: Inhibition of PI3Kdelta (unknown origin) in presence of [33P]-ATP incubated for 2 hrs by hotspot kinase assay
# Conditions: not given
row,IC50,SMILES
1,51 nM,O=C(O)c1ccc(CNc2nc3ccc(-c4nc(N5CCOCC5)nc(N5CCOCC5)n4)cc3o2)cc1

# Molecular target: Phosphatidylinositol 4,5-bisphosphate 3-kinase catalytic subunit beta isoform (Homo sapiens, UniProt P42338)
# Sequence (P42338 whole entry, canonical isoform): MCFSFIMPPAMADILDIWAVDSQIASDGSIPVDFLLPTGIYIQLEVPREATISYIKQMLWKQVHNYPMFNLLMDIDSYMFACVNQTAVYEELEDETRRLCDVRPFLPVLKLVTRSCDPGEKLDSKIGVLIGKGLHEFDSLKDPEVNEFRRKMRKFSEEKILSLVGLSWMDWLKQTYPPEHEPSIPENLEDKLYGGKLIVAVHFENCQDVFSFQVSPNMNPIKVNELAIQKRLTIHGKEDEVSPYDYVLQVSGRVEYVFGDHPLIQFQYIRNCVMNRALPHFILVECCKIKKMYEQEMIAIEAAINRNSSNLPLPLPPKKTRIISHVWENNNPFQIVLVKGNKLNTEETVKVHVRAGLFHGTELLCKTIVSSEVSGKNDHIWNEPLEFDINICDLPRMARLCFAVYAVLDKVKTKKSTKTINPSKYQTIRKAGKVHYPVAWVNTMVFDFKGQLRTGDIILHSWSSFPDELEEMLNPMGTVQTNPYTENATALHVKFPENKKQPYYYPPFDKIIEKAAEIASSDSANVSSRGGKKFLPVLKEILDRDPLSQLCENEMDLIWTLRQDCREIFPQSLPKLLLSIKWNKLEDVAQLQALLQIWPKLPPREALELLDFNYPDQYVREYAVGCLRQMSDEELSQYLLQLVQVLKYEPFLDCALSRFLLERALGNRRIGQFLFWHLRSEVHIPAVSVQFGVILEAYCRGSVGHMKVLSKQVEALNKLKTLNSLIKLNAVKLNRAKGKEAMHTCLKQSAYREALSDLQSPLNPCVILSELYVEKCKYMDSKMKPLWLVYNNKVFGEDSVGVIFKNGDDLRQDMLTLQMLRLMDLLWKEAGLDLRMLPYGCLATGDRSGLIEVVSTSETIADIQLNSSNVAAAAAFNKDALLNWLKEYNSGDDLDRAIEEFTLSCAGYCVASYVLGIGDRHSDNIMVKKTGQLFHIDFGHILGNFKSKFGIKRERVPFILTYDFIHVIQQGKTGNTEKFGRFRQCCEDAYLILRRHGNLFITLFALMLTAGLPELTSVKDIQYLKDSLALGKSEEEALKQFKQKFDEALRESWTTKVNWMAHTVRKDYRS
# Experiment: Inhibition of PI3Kbeta (unknown origin) in presence of [33P]-ATP incubated for 2 hrs by hotspot kinase assay
# Conditions: not given
row,IC50,SMILES
1,100 nM,O=C(O)c1ccc(CNc2nc3ccc(-c4nc(N5CCOCC5)nc(N5CCOCC5)n4)cc3o2)cc1

# Molecular target: Phosphatidylinositol 4,5-bisphosphate 3-kinase catalytic subunit gamma isoform (Homo sapiens, UniProt P48736)
# Sequence (P48736 whole entry, canonical isoform): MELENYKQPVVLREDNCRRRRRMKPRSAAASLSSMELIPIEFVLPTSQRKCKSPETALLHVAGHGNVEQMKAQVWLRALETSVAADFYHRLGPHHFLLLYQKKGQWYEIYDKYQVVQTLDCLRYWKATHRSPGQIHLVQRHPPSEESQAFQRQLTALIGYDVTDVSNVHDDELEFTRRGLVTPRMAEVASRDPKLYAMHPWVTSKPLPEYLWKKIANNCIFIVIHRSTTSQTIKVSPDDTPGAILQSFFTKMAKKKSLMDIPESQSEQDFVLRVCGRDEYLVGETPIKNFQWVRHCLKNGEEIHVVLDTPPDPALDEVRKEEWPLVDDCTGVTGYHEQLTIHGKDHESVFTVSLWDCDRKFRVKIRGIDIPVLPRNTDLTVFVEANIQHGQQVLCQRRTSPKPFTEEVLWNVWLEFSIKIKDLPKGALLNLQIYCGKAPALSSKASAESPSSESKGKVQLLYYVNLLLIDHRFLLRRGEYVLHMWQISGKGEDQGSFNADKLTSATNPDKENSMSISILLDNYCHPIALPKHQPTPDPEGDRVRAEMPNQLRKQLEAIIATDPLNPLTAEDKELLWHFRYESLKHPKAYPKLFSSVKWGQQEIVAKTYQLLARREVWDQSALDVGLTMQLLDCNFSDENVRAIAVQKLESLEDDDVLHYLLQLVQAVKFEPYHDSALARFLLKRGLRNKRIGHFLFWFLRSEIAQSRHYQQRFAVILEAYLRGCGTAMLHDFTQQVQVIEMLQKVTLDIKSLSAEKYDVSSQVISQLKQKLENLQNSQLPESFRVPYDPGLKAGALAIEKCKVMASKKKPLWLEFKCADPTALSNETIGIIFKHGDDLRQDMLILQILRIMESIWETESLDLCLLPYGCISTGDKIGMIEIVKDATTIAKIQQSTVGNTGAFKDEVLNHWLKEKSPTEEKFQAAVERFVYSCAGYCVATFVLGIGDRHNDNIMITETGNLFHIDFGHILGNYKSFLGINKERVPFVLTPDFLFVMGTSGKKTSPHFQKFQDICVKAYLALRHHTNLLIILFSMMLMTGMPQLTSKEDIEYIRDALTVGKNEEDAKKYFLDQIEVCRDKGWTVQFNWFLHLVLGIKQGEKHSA
# Conditions: not given
row,IC50,SMILES
1,3490 nM,O=C(O)c1ccc(CNc2nc3ccc(-c4nc(N5CCOCC5)nc(N5CCOCC5)n4)cc3o2)cc1
